Experiments:
Format in all cases: in vivo
[1] = test system: Cyperus esculentus; experiment: Post-emergence herbicidal action, CYPES; parameters: key: % herbicidal action vs untreated; 100 = plants died, 0 = like control; settings: for Herbicidal action against CYPES: comparative experiment
Procedure: (§1) [table] 2. Post-Emergence Herbicidal Action Against Harmful Plants Seeds of monocotyledonous and dicotyledonous weed and crop plants are laid out in sandy loam soil in wood-fiber pots, covered with soil and cultivated in a greenhouse under good growth conditions. 2 to 3 weeks after sowing, the test plants are treated at the one-leaf stage. The compounds of the invention, formulated in the form of wettable powders (WP) or as emulsion concentrates (EC), are then sprayed onto the green parts of the plants in the form of an aqueous suspension or emulsion at a water application rate equating to 600 to 800 l/ha, with addition of 0.2% wetting agent. After the test plants have been left to stand in the greenhouse under optimal growth conditions for about 3 weeks, the action of the preparations is assessed visually in comparison to untreated controls (herbicidal action in percent (%): 100% activity=the plants have died, 0% activity=like control plants). […] The tables below illustrate, in an exemplary manner, the post-emergence herbicidal action of the compounds according to the invention, the herbicidal activity being stated in percent. In the experiments that follow, herbicidal action of numerous inventive compounds and the known compounds that are structurally closest from D1 (WO 2012/028579 A1) and D2 (WO 2018/202535 A1) were compared under the above-specified conditions by the pre-emergence and post-emergence method. The example numbers given in the tables relate to the compounds disclosed in the respective documents. In addition to the compounds disclosed in D1 and D2, the following compounds V-1 to V-14 that are encompassed by D1 or D2 but are not compounds specified therein were used in the comparative experiments: • V-1: 2-(methylsulfanyl)-3-(methylsulfinyl)-N-(1-methyl-1H-tetrazol-5-yl)-4-(trifluoromethyl)benzamide • V-2: 2-(methylsulfanyl)-3-(methylsulfonyl)-N-(1-methyl-1H-tetrazol-5-yl)-4-(trifluoromethyl)benzamide • V-3: 2,3-bis(ethylsulfanyl)-N-(1-methyl-1H-tetrazol-5-yl)-4-(trifluoromethyl)benzamide • V-4: 2-chloro-3-(ethylsulfanyl)-N-(1-methyl-1H-tetrazol-5-yl)-4-(trifluoromethyl)benzamide • V-5: 2-chloro-4-iodo-3-(methylsulfanyl)-N-(1-methyl-1H-tetrazol-5-yl)benzamide • V-6: 2-chloro-4-iodo-3-(methylsulfinyl)-N-(1-methyl-1H-tetrazol-5-yl)benzamide • V-7: 2-chloro-4-iodo-3-(methylsulfonyl)-N-(1-methyl-1H-tetrazol-5-yl)benzamide • V-8: 2-bromo-3-(methylsulfanyl)-N-(1-methyl-1H-tetrazol-5-yl)-4-(trifluoromethyl)benzamide • V-9: 2-bromo-3-(methylsulfinyl)-N-(1-methyl-1H-tetrazol-5-yl)-4-(trifluoromethyl)benzamide • V-10: 2-bromo-3-(methylsulfonyl)-N-(1-methyl-1H-tetrazol-5-yl)-4-(trifluoromethyl)benzamide • V-11: 2-bromo-3-(ethylsulfanyl)-N-(1-methyl-1H-tetrazol-5-yl)-4-(trifluoromethyl)benzamide • V-12: 2-bromo-3-(ethylsulfinyl)-N-(1-methyl-1H-tetrazol-5-yl)-4-(trifluoromethyl)benzamide • V-13: 2-bromo-3-(ethylsulfonyl)-N-(1-methyl-1-1H-tetrazol-5-yl)-4-(trifluoromethyl)benzamide • V-14: 2-cyclopropyl-3-(ethylsulfanyl)-N-(1-methyl-1H-tetrazol-5-yl)-4-(trifluoromethyl)benzamide Herbicidal Pre-Emergence Action: […]

[2] = test system: Lolium multiflorum; experiment: Post-emergence herbicidal action, LOLMU; parameters: key: % herbicidal action: 100 = plants died, 0 = like control; settings: for Herbicidal action against LOLMU: comparative experiment
Procedure: as §1

[3] = test system: Hordeum murinum; experiment: Pre-emergence herbicidal action, HORMU; settings: dosage 320 g/ha, scored visually after 3 weeks vs untreated controls (100% = plants have died)
Description: (§2) 1. Pre-Emergence Herbicidal Action Against Harmful Plants Seeds of monocotyledonous and dicotyledonous weed plants and crop plants are laid out in sandy loam soil in wood-fiber pots and covered with soil. The compounds of the invention, formulated in the form of wettable powders (WP) or as emulsion concentrates (EC), are then applied to the surface of the covering soil in the form of an aqueous suspension or emulsion at a water application rate equating to 600 to 800 l/ha, with addition of 0.2% wetting agent. After the treatment, the pots are placed in a greenhouse and kept under good growth conditions for the trial plants. The damage to the test plants is scored visually after a test period of 3 weeks by comparison with untreated controls (herbicidal activity in percent (%): 100% activity=the plants have died, 0% activity=like control plants). […] The tables below illustrate, in an exemplary manner, the […] herbicidal action of the compounds according to the invention, the herbicidal activity being stated in percent. [table] In the experiments that follow, herbicidal action of numerous inventive compounds and the known compounds that are structurally closest from D1 (WO 2012/028579 A1) and D2 (WO 2018/202535 A1) were compared under the above-specified conditions by the pre-emergence and post-emergence method. The example numbers given in the tables relate to the compounds disclosed in the respective documents. In addition to the compounds disclosed in D1 and D2, the following compounds V-1 to V-14 that are encompassed by D1 or D2 but are not compounds specified therein were used in the comparative experiments: • V-1: 2-(methylsulfanyl)-3-(methylsulfinyl)-N-(1-methyl-1H-tetrazol-5-yl)-4-(trifluoromethyl)benzamide • V-2: 2-(methylsulfanyl)-3-(methylsulfonyl)-N-(1-methyl-1H-tetrazol-5-yl)-4-(trifluoromethyl)benzamide • V-3: 2,3-bis(ethylsulfanyl)-N-(1-methyl-1H-tetrazol-5-yl)-4-(trifluoromethyl)benzamide • V-4: 2-chloro-3-(ethylsulfanyl)-N-(1-methyl-1H-tetrazol-5-yl)-4-(trifluoromethyl)benzamide • V-5: 2-chloro-4-iodo-3-(methylsulfanyl)-N-(1-methyl-1H-tetrazol-5-yl)benzamide • V-6: 2-chloro-4-iodo-3-(methylsulfinyl)-N-(1-methyl-1H-tetrazol-5-yl)benzamide • V-7: 2-chloro-4-iodo-3-(methylsulfonyl)-N-(1-methyl-1H-tetrazol-5-yl)benzamide • V-8: 2-bromo-3-(methylsulfanyl)-N-(1-methyl-1H-tetrazol-5-yl)-4-(trifluoromethyl)benzamide • V-9: 2-bromo-3-(methylsulfinyl)-N-(1-methyl-1H-tetrazol-5-yl)-4-(trifluoromethyl)benzamide • V-10: 2-bromo-3-(methylsulfonyl)-N-(1-methyl-1H-tetrazol-5-yl)-4-(trifluoromethyl)benzamide • V-11: 2-bromo-3-(ethylsulfanyl)-N-(1-methyl-1H-tetrazol-5-yl)-4-(trifluoromethyl)benzamide • V-12: 2-bromo-3-(ethylsulfinyl)-N-(1-methyl-1H-tetrazol-5-yl)-4-(trifluoromethyl)benzamide • V-13: 2-bromo-3-(ethylsulfonyl)-N-(1-methyl-1-1H-tetrazol-5-yl)-4-(trifluoromethyl)benzamide • V-14: 2-cyclopropyl-3-(ethylsulfanyl)-N-(1-methyl-1H-tetrazol-5-yl)-4-(trifluoromethyl)benzamide Herbicidal Pre-Emergence Action: […]

[4] = test system: Hordeum murinum; experiment: Post-emergence herbicidal action, HORMU; parameters: key: % herbicidal action: 100 = plants died, 0 = like control; settings: Dosage 80 g/ha
Procedure: as §1

[5] = test system: Digitaria sanguinalis; experiment: Post-emergence herbicidal action, DIGSA; parameters: key: % herbicidal action: 100 = plants died, 0 = like control; settings: Dosage 80 g/ha
Procedure: as §1

[6] = test system: Digitaria sanguinalis; experiment: Pre-emergence herbicidal action, DIGSA; settings: dosage 320 g/ha, scored visually after 3 weeks vs untreated controls (100% = plants have died)
Description: as §2

[7] = post-emergence, 20 g of a.i./ha

Compound	herbicidal action LOLMU ([2]; post-emergence, dosage 80 g/ha) [%]	herbicidal action CYPES ([1]; post-emergence, dosage 80 g/ha) [%]	other results
Cc1ccc(C(=O)Nc2nnnn2C)c(Cl)c1C[S+](C)[O-] (racemic) [Example 1-288]			herbicidal action CYPES ([1]; Dosage 80 g/ha): 90
CC[S+]([O-])Cc1c(C(F)(F)F)ccc(C(=O)Nc2nnnn2C)c1Br (racemic) [Example 1-384]	90	90	
CSCc1c(C(F)(F)F)ccc(C(=O)Nc2nnnn2C)c1C [Example 1-83]	80	90	
CCSCc1c(C(F)(F)F)ccc(C(=O)Nc2nnnn2C)c1Cl [Example 1-299]	90	80	Herbicidal action against LOLMU ([2]; post-emergence, 5 g of a.i./ha): 70
Cn1nnnc1NC(=O)c1ccc(C(F)(F)F)c(CSCC(F)(F)F)c1Cl [Example 1-311]			herbicidal activity HORMU [3]: 100%; herbicidal action CYPES ([1]; Dosage 80 g/ha): 100; herbicidal action HORMU [4]: 100
CSCc1c(C(F)F)ccc(C(=O)Nc2nnnn2C)c1Cl [Example 1-320]			herbicidal action LOLMU ([2]; Dosage 80 g/ha): 80; herbicidal action CYPES ([1]; Dosage 80 g/ha): 80
Cn1nnnc1NC(=O)c1ccc(C(F)F)c(CS(C)(=O)=O)c1Cl [Example 1-322]	90		
CCSCc1c(C(F)F)ccc(C(=O)Nc2nnnn2C)c1Cl [Example 1-323]	90	80	
CCS(=O)(=O)Cc1c(C(F)F)ccc(C(=O)Nc2nnnn2C)c1Cl [Example 1-325]			herbicidal action LOLMU ([2]; Dosage 80 g/ha): 90; herbicidal action CYPES ([1]; Dosage 80 g/ha): 80
CCSCc1c(C(F)(F)F)ccc(C(=O)Nc2nnnn2C)c1Br [Example 1-383]	90		
CCS(=O)(=O)Cc1c(C(F)(F)F)ccc(C(=O)Nc2nnnn2C)c1Br [Example 1-385]	80	80	Herbicidal action against LOLMU [2, 7]: 50; Herbicidal action against CYPES [1, 7]: 60
CSCc1c(Cl)ccc(C(=O)Nc2nnnn2C)c1Cl [Example 1-559]	100	90	
COc1c(C(=O)Nc2nnnn2C)ccc(Cl)c1CSC [Example 1-570]			Herbicidal action against CYPES ([1]; post-emergence, 5 g of a.i./ha): 60
CCSCc1c(C(F)(F)F)ccc(C(=O)Nc2nnnn2CC)c1C [Example 2-86]	90	80	
CCn1nnnc1NC(=O)c1ccc(C(F)(F)F)c(C[S+](C)[O-])c1SC (stereo not drawn) [Example 2-162]			herbicidal activity HORMU [3]: 90%
CCn1nnnc1NC(=O)c1ccc(C(F)F)c(C[S+](C)[O-])c1SC (stereo not drawn) [Example 2-171]			herbicidal action DIGSA [5]: 90; herbicidal activity DIGSA [6]: 100%
CCn1nnnc1NC(=O)c1ccc(C(F)(F)F)c(CSC)c1Cl [Example 2-296]	90	80	

Source: US12492173B2, “Herbicidal substituted N-tetrazolyl aryl carboxamides” (Bayer Aktiengesellschaft, priority 2019, dated 2025)
